US20090124682A1, “Indan-Amide Derivatives with Glycogen Phosphorylase Inhibitory Activity” (priority 2005, published 2009)

Columns and labels:
conscious dogs = settings: following a glucagon challenge; cited from earlier work
hepatocytes = settings: cited from earlier work; for glucose output: glucagon stimulated
db/db and ob/ob mice = db/db and ob/ob mice following treatment; cited from earlier work
[1] = molecular target: T1, Human recombinant liver glycogen phosphorylase a (hrl GPa) (Homo sapiens, UniProt P06737); experiment: glycogen phosphorylase multienzyme coupled assay (glucose-1-phosphate production from glycogen); type: biochemical; settings: hrl GPa 20 nM, 6 hours at 30° C., 8 mM glucose
T1 sequence (P06737 1-847): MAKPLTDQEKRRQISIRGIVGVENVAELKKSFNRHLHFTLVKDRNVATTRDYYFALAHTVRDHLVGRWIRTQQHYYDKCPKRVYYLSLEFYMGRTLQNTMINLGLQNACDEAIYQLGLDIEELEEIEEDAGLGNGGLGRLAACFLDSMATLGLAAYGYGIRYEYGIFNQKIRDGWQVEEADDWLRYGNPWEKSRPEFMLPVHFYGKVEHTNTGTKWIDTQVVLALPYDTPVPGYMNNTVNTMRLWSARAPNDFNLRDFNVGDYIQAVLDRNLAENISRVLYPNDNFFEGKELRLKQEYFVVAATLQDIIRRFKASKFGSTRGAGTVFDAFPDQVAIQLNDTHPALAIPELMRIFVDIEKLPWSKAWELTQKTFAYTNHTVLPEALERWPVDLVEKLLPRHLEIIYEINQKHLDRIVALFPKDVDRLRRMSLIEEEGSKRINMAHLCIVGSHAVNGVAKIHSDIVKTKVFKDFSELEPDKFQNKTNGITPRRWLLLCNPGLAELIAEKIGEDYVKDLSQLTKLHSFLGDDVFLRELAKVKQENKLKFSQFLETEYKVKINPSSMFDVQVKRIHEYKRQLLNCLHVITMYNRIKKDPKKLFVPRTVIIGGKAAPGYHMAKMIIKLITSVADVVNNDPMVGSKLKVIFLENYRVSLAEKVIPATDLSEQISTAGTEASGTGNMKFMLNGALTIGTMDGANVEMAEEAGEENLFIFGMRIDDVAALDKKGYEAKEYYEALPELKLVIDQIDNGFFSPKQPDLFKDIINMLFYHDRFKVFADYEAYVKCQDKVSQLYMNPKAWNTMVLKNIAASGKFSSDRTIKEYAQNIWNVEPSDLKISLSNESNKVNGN
Procedure: The activity of the compounds is determined by measuring the inhibitory effect of the compounds on glycogen degradation, the production of glucose-1-phosphate from glycogen is monitored by the multienzyme coupled assay, as described in EP 0 846 464 A2, general method of Pesce et al (Pesce, M A, Bodourian, S H, Harris, R C, and Nicholson, J F (1977) Clinical Chemistry 23, […]). The reactions were in 384 well microplate format in a volume of 50 μl. The change in fluorescence due to the conversion of the co-factor NAD to NADH is measured at 340 nm excitation, 465 nm emission in a Tecan Ultra Multifunctional Microplate Reader. The reaction is in 50 mM HEPES, 3.5 mM KH2PO4, 2.5 mM MgCl2, 2.5 mM ethylene glycol-bis(b-aminoethyl ether) N,N,N′N′-tetraacetic acid, 100 mM KCl, 8 mM D-(+)-glucose pH7.2, containing 0.5 mM dithiothreitol, the assay buffer solution. Human recombinant liver glycogen phosphorylase a (hrl GPa) 20 nM is pre-incubated in assay buffer solution with 6.25 mM NAD, 1.25 mg type III glycogen at 1.25 mg ml^−1 the reagent buffer, for 30 minutes. […] The non-inhibited activity of GPa is measured in the presence of 10 μl 15% DMSO in assay buffer solution and maximum inhibition measured in the presence of 5 mgs ml^−1 N-ethylmaleimide. […] Relative Fluoresence Units (RFUs) are measured at 340 nm excitation, 465 nm emission. […]
Activity is calculated as follows:—

Row | SMILES | glucagon stimulated glycogenolysis (hepatocytes) | glucose output (hepatocytes) | plasma glucose concentration (db/db and ob/ob mice) | IC50 [1] | other results
1 | CCN1C(C)=C(C(=O)OC(C)C)C(c2ccccc2Cl)C2=C1COC2=O (stereo not shown) [Bay R 3401] |  |  |  |  | arterial plasma glucose (conscious dogs): reduced significantly; hepatic glucose output (conscious dogs): reduced significantly
2 | CN(C)C(=O)[C@H](O)[C@H](Cc1ccccc1)NC(=O)c1cc2cc(Cl)ccc2[nH]1 [CP91149] | reduce | reduce | reduced, in a dose related manner |  | 
3 | O=C(N[C@@H](Cc1ccc(F)cc1)C(=O)N1CCC(O)CC1)c1cc2cc(Cl)ccc2[nH]1 [CP320626] | reduce | reduce | reduced, in a dose related manner |  | 
4 | O=C(O)COC[C@@H]1c2ccccc2C[C@H]1NC(=O)c1cc2cc(F)ccc2[nH]1 [Example 2, [((1R,2R)-2-{[(5-Fluoro-1H-indol-2-yl)carbonyl]amino}-2,3-dihydro-1H-inden-1-yl)methoxy]acetic acid] |  |  |  | 1670 nM | 
5 | O=C(O)C[C@@H]1c2ccccc2C[C@H]1NC(=O)c1cc2cc(F)ccc2[nH]1 [Example 5, ((1R,2R)-2-{[(5-Fluoro-1H-indol-2-yl)carbonyl]amino}-2,3-dihydro-1H-inden-1-yl)acetic acid] |  |  |  | 161 nM | 
